From patent US11786609B2, “Lipid compound as well as lipid vector, nucleic acid lipid nanoparticle composition, and pharmaceutical preparation comprising the same” (PURECODON (HONG KONG) BIOPHARMA LIMITED, priority 2021, dated 2023)

Columns and labels:
[1] = Particle size, PDI and encapsulation efficiency of LNP@mRNA; format: physicochemical; conditions: Example 26: LNP@mRNA of compound, cholesterol, DOPE, PEG-DMG 35:46.5:16:2.5; luciferase mRNA
Protocol: (§1) Compounds 1, 2, 17, 27 or 33 was each dissolved in the first solution with cholesterol, DOPE and PEG-DMG in a molar ratio of 35:46.5:16:2.5, and luciferase mRNA was dissolved in the second solution. […] Microfluidics was utilized to quickly mix the two phases, and dialysis or tangential flow was utilized to replace the buffer environment with PBS (pH 7.4) and thus remove ethanol, so as to prepare and afford five kinds of LNP@mRNAs, respectively.
Microfluidics was utilized to quickly mix the two phases, and dialysis or tangential flow was utilized to replace the buffer environment with PBS (pH 7.4) and thus remove ethanol, so as to prepare and afford LNP@mRNA.
The particle size, PDI and encapsulation efficiency of each of the above-mentioned LNP@mRNAs were determined, and the results were successively shown in Table 3.

[2] = test system: mice; experiment: Fluorescence intensity in mice after intramuscular injection of LNP@mRNA (luciferase mRNA); format: in vivo; conditions: for maximum fluorescence intensity: intramuscular injection of LNP@mRNA (compound and other three lipids), FIG. 7
Protocol: as §1
(§2) The prepared LNP@mRNAs were each injected into mice via tail vein or muscle, and the fluorescence intensities and organ distribution in mice were determined 6 hours later.
The prepared mRNA@LNPs were each injected into mice via intramuscular injection, and the fluorescence intensities and organ distribution in mice were determined 6 hours later.

[3] = test system: mice; experiment: Organ distribution of mRNA expression in mice after intravenous (tail vein) injection of LNP@mRNA; format: in vivo; conditions: 6 hours after intravenous (tail vein) injection, anatomical image
Protocol: as §1, §2

[4] = Particle size, PDI and encapsulation efficiency of LNP@mRNA; format: physicochemical; conditions: Example 26 LNP@mRNA, summary of Table 1

Structure (SMILES)	Encapsulation efficiency [1] [%]	PDI [1]	Particle size [1] [nm]	encapsulation efficiency (in words) [4]	particle size (in words) [4]	maximum fluorescence intensity [2]	expression relative to LNP@mRNA prepared by Compound 27 ([2]; intramuscular injection, ratio of maximum fluorescence intensities) [times]	mRNA expression in liver [3]	mRNA expression in spleen [3]
CCCCCCC(CCCC)C(=O)OCCCCOC(=O)CCN(CCCN(C)CCCN(CCC(=O)OCCCCOC(=O)C(CCCC)CCCCCC)CCC(=O)OCCCCOC(=O)C(CCCC)CCCCCC)CCC(=O)OCCCCOC(=O)C(CCCC)CCCCCC (centres unmarked) [Compound 33]	96	0.11	86	relatively high encapsulation efficiency	relatively small particle size	1.59*10^7	46.9	mainly expressed in liver	some mRNA was expressed in spleen
CCCCCCC(CCCC)C(=O)OCCCCCCN(CCCCCCOC(=O)C(CCCC)CCCCCC)CCCN(C)CCCN(CCCCCCOC(=O)C(CCCC)CCCCCC)CCCCCCOC(=O)C(CCCC)CCCCCC (centres unmarked) [Compound 27]	57	0.21	90	–	relatively small particle size	3.39*10^5	–	few mRNA was expressed in liver	mainly expressed in spleen
CCCCCCCCC(CCCCCC)C(=O)OCCCCCCN(CCCCCCOC(=O)C(CCCCCC)CCCCCCCC)CCCN(C)CCCN(CCCCCCOC(=O)C(CCCCCC)CCCCCCCC)CCCCCCOC(=O)C(CCCCCC)CCCCCCCC (centres unmarked) [Compound 17]	96	0.19	184	relatively high encapsulation efficiency	–	–	–	–	–

Further lines, with some results ahead:

Encapsulation efficiency [1] [%]	PDI [1]	Particle size [1] [nm]	encapsulation efficiency (in words) [4]	particle size (in words) [4]	Structure (SMILES)	maximum fluorescence intensity [2]	expression relative to LNP@mRNA prepared by Compound 27 ([2]; intramuscular injection, ratio of maximum fluorescence intensities) [times]	mRNA expression in liver [3]	mRNA expression in spleen [3]
96	0.14	95	relatively high encapsulation efficiency	relatively small particle size	CCCCCCCCC(CCCCCC)C(=O)OCCN(CCCN(C)CCCN(CCOC(=O)C(CCCCCC)CCCCCCCC)CCOC(=O)C(CCCCCC)CCCCCCCC)CCOC(=O)C(CCCCCC)CCCCCCCC (centres unmarked) [Compound 1]	–	–	–	–
86	0.20	84	relatively high encapsulation efficiency	relatively small particle size	CCCCCCC(CCCC)C(=O)OCCN(CCCN(C)CCCN(CCOC(=O)C(CCCC)CCCCCC)CCOC(=O)C(CCCC)CCCCCC)CCOC(=O)C(CCCC)CCCCCC (centres unmarked) [Compound 2]	–	–	few mRNA was expressed in liver	mainly expressed in spleen
